Source: US9776990B2, “Isoindolone derivatives” (AbbVie Inc., priority 2012, dated 2017)
Marks after values point to notes of the source that are not given here.

Tests used:
[1] = tested on: breast cancer cell line MX-1; test: MX-1 cell line proliferation assay (3-day, Cell Titer Glo); format: cell-based, human; conditions: Homo sapiens, MX1, MX-1 cells, 72 hours, read-out: Cellular proliferation: EC50
Ly18 = test: Proliferation panel assay, Ly18; format: cell-based; conditions: 120 h; NHL, Ly18, 5 days; read-out: Cellular Proliferation EC50
Procedure: (§1) The impact of compounds of the Examples on cancer cell proliferation was determined using the breast cancer cell line MX-1 (ATCC) in a 3-day proliferation assay. MX-1 cells were maintained in RPMI supplemented with 10% FBS at 37 C.° and an atmosphere of 5% CO2. For compound testing, MX-1 cells were plated in 96-well black bottom plates at a density of 5000 cells/well in 90 μl of culture media and incubated at 37° overnight to allow cell adhesion and spreading. Compound dilution series were prepared in DMSO via a 3-fold serial dilution from 3 mM to 0.1 μM. […]
(§2) Luminescence readings from the Cell Titer Glo assay were normalized to the DMSO treated cells and analyzed using the GraphPad Prism software with sigmoidal curve fitting to obtain EC50s. The minimum significant ratio (MSR) was determined to evaluate assay reproducibility (Eastwood et al., (2006) J Biomol Screen, 11: 253-261). The overall MSR was determined to be 2.1 and a moving MSR (last six run MSR overtime) has been <2.
(§3) The compound of Example 40 was tested for its impact on proliferation of a panel of cancer cell line types (with specific cell lines tested) as set out in (Table 2). […] Cell proliferation data were analyzed as described above in the MX-1 proliferation assay to obtain the EC50 for the compounds reported in Table 2.

[2] = tested on: MV4-11 human AML xenograft; test: Xenograft tumor growth inhibition assay, MV4-11; format: in vivo, mice; conditions: MV4-11 xenograft
Procedure: (§4) The effect of the compound of Example 40 to inhibit the growth of Ramos, OPM-2, MX-1, MV4-11, and HT1080 xenograft tumors was evaluated. Briefly, 0.5×10^6 human cancer cells (HT1080), 1×10^6 human cancer cells (Ramos), 5×10^6 human cancer cells (OPM-2, MV4-11) or 1:10 tumor brie (MX-1) (in S-MEM (MEM, Suspension, no Calcium, no Glutamine)) (Life Technologies Corporation) were inoculated subcutaneously into the right hind flank of female SCID or SCID-beige (MV4-11, HT1080) mice (Charles Rivers Labs) on study day 0. Compound was formulated in 2% EtOH, 5% Tween-80, 20% PEG-400, 73% HPMC (Ramos, OPM-2 and MX-1) or 5% DMSO, 5% EtOH, 30% PEG400, 60% Phosal 53 (MV4-11, HT1080). Administration of compound was initiated at the time of size match on day 8 (HT1080), day 17 (MX-1), or day 18 (Ramos, MV4-11, OPM-2). The tumors were measured by a pair of calipers twice a week starting at the time of size match and tumor volumes were calculated according to the formula V=L×W^2/2 (V: volume, mm^3; L: length, mm. W: width, m) Tumor volume was measured for the duration of the experiment until the mean tumor volume in each group reached an endpoint of >1000 mm^3.

[3] = tested on: MX-1 human breast cancer xenograft; test: Xenograft tumor growth inhibition assay, MX-1; format: in vivo, mice; conditions: MX-1 xenograft; for % TGI (tumor growth inhibition): QDx14, based on day 38; for % TGD (tumor growth delay): QDx14, endpoint 1000 mm^3
Procedure: as §4

[4] = tested on: HT1080 human fibrosarcoma xenograft; test: Xenograft tumor growth inhibition assay, HT1080; format: in vivo, mice; conditions: BID x 14, based on day 18
Procedure: as §4

H1975 = test: Proliferation panel assay, H1975; format: cell-based; conditions: Homo sapiens, NCI-H1975, 120 h; NSCLC, H1975, 5 days; read-out: Cellular Proliferation EC50
Procedure: as §1, §2, §3

MDAMB453 = test: Proliferation panel assay, MDAMB453; format: cell-based; conditions: Homo sapiens, MDA-MB-453, 120 h; Breast, MDAMB453, 5 days; read-out: Cellular Proliferation EC50
Procedure: as §1, §2, §3

[5] = tested on: LPS induced IL-6 production; test: LPS (lipopolysaccharide) induced IL-6 production mouse assay; format: in vivo; conditions: mice, one hour before LPS, serum 2 hours after LPS
Procedure: Compounds of the Examples listed in Table 8 were assayed for their ability to inhibit LPS (lipopolysaccharide) induced IL-6 production in mice. Severe combined immunodeficient female mice (8 per group) received an intraperitoneal challenge of lipopolysaccharide (2.5 mg/kg, L2630 E. coli 0111:B4) one hour after oral administration (PO) or intraperitoneal administration (IP) of compounds in a solution of 2% ethanol, 5% Tween-80, 20% PEG-400 and 73% (0.2% hydroxypropylmethylcellulose in water). Mice were euthanized 2 hours after lipopolysaccharide injection, blood was removed by cardiac puncture, and then the serum harvested from the blood samples was frozen at −80° C. On the day of the assay the serum samples were brought to room temperature and then diluted 1:20 in phosphate-buffered saline containing 2% bovine serum albumin. Interleukin-6 measurements were performed using a cytokine assay from Meso Scale Discovery (Gaithersburg, Md.) for mouse serum analysis according to the manufacturer's protocol and read on a SECTOR Imager 6000 (Meso Scale Discovery, Gaithersburg, Md.) instrument. Statistical analysis was performed using Prism software (version 5.0) incorporating Dunnett's one way ANOVA. The IL-6 mean and standard deviation of the group of vehicle treated animals were compared with the IL-6 mean and standard deviation of the group treated with drug. A p value <0.05 means that there is less than a 5% probability that the mean values in the two groups are equal.

For Cc1[nH]c(-c2cc(NS(C)(=O)=O)ccc2Oc2ccccc2)c2c1C(=O)CCC2 [Example 40, N-[3-(3-methyl-4-oxo-4,5,6,7-tetrahydro-2H-isoindol-1-yl)-4-phenoxyphenyl]methanesulfonamide], the EC50 [1] was 160 nM, the EC50 (Ly18) was 370 nM and the mortality ([2]; 25 mg/kg/day PO, BID x 14) was “^b10% mortality”. For the same compound, the “% TGI (tumor growth inhibition)” value ([2]; 25 mg/kg/day PO, BID x 14, based on day 31) was 14^b %, the mortality ([2]; 50 mg/kg/day PO, BID x 14) was “^c30% mortality” and the “% TGI (tumor growth inhibition)” value ([2]; 50 mg/kg/day PO, BID x 14, based on day 31) was 42^c** %. For the same compound, the mortality ([2]; 100 mg/kg/day PO, BID 5 on, 3 off x 2) was “^d40% mortality”, the “% TGI (tumor growth inhibition)” value ([2]; 100 mg/kg/day PO, BID 5 on, 3 off x 2, based on day 31) was 67^d** % and the “% TGI (tumor growth inhibition)” value ([3]; group 2, 100 mg/kg/day PO) was 78*** %. The “% TGD (tumor growth delay)” value ([3]; group 2, 100 mg/kg/day PO) was 29*** %, the “% TGI (tumor growth inhibition)” value ([3]; group 3, 30 mg/kg/day PO) was 48*** % and the “% TGD (tumor growth delay)” value ([3]; group 3, 30 mg/kg/day PO) was 22*** %. The “% TGI (tumor growth inhibition)” value ([3]; group 4, 10 mg/kg/day PO) was 18%, the “% TGD (tumor growth delay)” value ([3]; group 4, 10 mg/kg/day PO) was 17% and the “% TGI (tumor growth inhibition)” value ([3]; group 5, 100 mg/kg/day PO) was 80*** %. For the same compound, the “% TGD (tumor growth delay)” value ([3]; group 5, 100 mg/kg/day PO) was 28*** %, the “% TGI (tumor growth inhibition)” value ([3]; group 6, 20 mg/kg/day PO) was 30* % and the “% TGD (tumor growth delay)” value ([3]; group 6, 20 mg/kg/day PO) was 19* %. The “% TGI (tumor growth inhibition)” value ([4]; 10 mg/kg/day PO) was −1%, the “% TGI (tumor growth inhibition)” value ([4]; 30 mg/kg/day PO) was 14% and the “% TGI (tumor growth inhibition)” value ([4]; 100 mg/kg/day PO) was 52** %. For the same compound, the EC50 (H1975) was 180 nM, the EC50 (MDAMB453) was 220 nM and the “% inhibition of LPS induced IL-6 production” value (“% inhibition” for short) ([5]; 3 mg/kg (PO)) was 28.7 at 3 mg/kg (PO) %. For the same compound, the “% inhibition” value ([5]; 10 mg/kg (PO)) was 52.4 at 10 mg/kg (PO) %, the “% inhibition” value ([5]; 30 mg/kg (PO)) was 72.7 at 30 mg/kg (PO) % and the “% inhibition” value ([5]; 50 mg/kg (IP)) was 84.7 at 50 mg/kg (IP) %.
